Measurements published in patent US5541193A, “Heterocycle-containing macrocyclic immunomodulators” (Abbott Laboratories, priority 1995, dated 1996).

Tested on: human mixed lymphocyte reaction (MLR)
Experiment: human mixed lymphocyte reaction (MLR) assay, immunosuppressant activity
Type: cell-based
Settings: Table 1
Experimental: […] Assay of Biological Activity
The immunosuppressant activity of the compounds of the present invention was determined using the human mixed lymphocyte reaction (MLR) assay described by Kino, T. et al. in Transplantation Proceedings, XIX(5):36-39,Suppl. 6 (1987).

SMILES | IC50 [nM]
CC[C@@H]1/C=C(\C)C[C@H](C)C[C@H](OC)[C@H]2O[C@@](O)(C(=O)C(=O)N3CCCC[C@H]3C(=O)O[C@H](/C(C)=C/[C@@H]3CC[C@H](n4nnc5cc([N+](=O)[O-])ccc54)[C@H](OC)C3)[C@H](C)[C@@H](O)CC1=O)[C@H](C)C[C@@H]2OC [Example 9] | 0.23
CC[C@@H]1/C=C(\C)C[C@H](C)C[C@H](OC)[C@H]2O[C@@](O)(C(=O)C(=O)N3CCCC[C@H]3C(=O)O[C@H](/C(C)=C/[C@@H]3CCC(OC)C(n4ccnn4)C3)[C@H](C)[C@@H](O)CC1=O)[C@H](C)C[C@@H]2OC (some centres unmarked) [Example 6] | 0.44
CC[C@@H]1/C=C(\C)C[C@H](C)C[C@H](OC)[C@H]2O[C@@](O)(C(=O)C(=O)N3CCCC[C@H]3C(=O)O[C@H](/C(C)=C/[C@@H]3CC[C@H](n4nnc5ccccc54)[C@H](OC)C3)[C@H](C)[C@@H](O)CC1=O)[C@H](C)C[C@@H]2OC [Example 7] | 0.21
CC[C@@H]1/C=C(\C)C[C@H](C)C[C@H](OC)[C@H]2O[C@@](O)(C(=O)C(=O)N3CCCC[C@H]3C(=O)O[C@H](/C(C)=C/[C@@H]3CC[C@H](n4cnc([N+](=O)[O-])n4)[C@H](OC)C3)[C@H](C)[C@@H](O)CC1=O)[C@H](C)C[C@@H]2OC [Example 15] | 0.04
CC[C@@H]1/C=C(\C)C[C@H](C)C[C@H](OC)[C@H]2O[C@@](O)(C(=O)C(=O)N3CCCC[C@H]3C(=O)O[C@H](/C(C)=C/[C@@H]3CCC(OC)C(n4nnc5ccccc54)C3)[C@H](C)[C@@H](O)CC1=O)[C@H](C)C[C@@H]2OC (some centres unmarked) [Example 8] | 1.76
CC[C@@H]1/C=C(\C)C[C@H](C)C[C@H](OC)[C@H]2O[C@@](O)(C(=O)C(=O)N3CCCC[C@H]3C(=O)O[C@H](/C(C)=C/[C@@H]3CC[C@H](n4ccnn4)[C@H](OC)C3)[C@H](C)[C@@H](O)CC1=O)[C@H](C)C[C@@H]2OC [Example 5] | 2.48
CC[C@@H]1/C=C(\C)C[C@H](C)C[C@H](OC)[C@H]2O[C@@](O)(C(=O)C(=O)N3CCCC[C@H]3C(=O)O[C@H](/C(C)=C/[C@@H]3CC[C@H](n4nnc5ccc([N+](=O)[O-])cc54)[C@H](OC)C3)[C@H](C)[C@@H](O)CC1=O)[C@H](C)C[C@@H]2OC [Example 10] | 0.22
CC[C@@H]1/C=C(\C)C[C@H](C)C[C@H](OC)[C@H]2O[C@@](O)(C(=O)C(=O)N3CCCC[C@H]3C(=O)O[C@H](/C(C)=C/[C@@H]3CCC(OC)C(n4nnc5ccc([N+](=O)[O-])cc54)C3)[C@H](C)[C@@H](O)CC1=O)[C@H](C)C[C@@H]2OC (some centres unmarked) [Example 12] | 0.94
CC[C@@H]1/C=C(\C)C[C@H](C)C[C@H](OC)[C@H]2O[C@@](O)(C(=O)C(=O)N3CCCC[C@H]3C(=O)O[C@H](/C(C)=C/[C@@H]3CCC(OC)C(n4nnc5cc([N+](=O)[O-])ccc54)C3)[C@H](C)[C@@H](O)CC1=O)[C@H](C)C[C@@H]2OC (some centres unmarked) [Example 11] | 1.56
CC[C@@H]1/C=C(\C)C[C@H](C)C[C@H](OC)[C@H]2O[C@@](O)(C(=O)C(=O)N3CCCC[C@H]3C(=O)O[C@H](/C(C)=C/[C@@H]3CC[C@H](n4cncn4)[C@H](OC)C3)[C@H](C)[C@@H](O)CC1=O)[C@H](C)C[C@@H]2OC [Example 13] | 0.62
CC[C@@H]1/C=C(\C)C[C@H](C)C[C@H](OC)[C@H]2O[C@@](O)(C(=O)C(=O)N3CCCC[C@H]3C(=O)O[C@H](/C(C)=C/[C@@H]3CCC(OC)C(n4cnc([N+](=O)[O-])n4)C3)[C@H](C)[C@@H](O)CC1=O)[C@H](C)C[C@@H]2OC (some centres unmarked) [Example 16] | 1
